Experimental findings from patent US10857112B2, “Small molecule inhibitors of RNA binding motif (RBM) proteins for the treatment of acute cellular injury” (University of Pittsburgh—Of the Commonwealth System of …, priority 2012, dated 2020) are described below.

Data set [1] deals with primary rat cortical neurons. Put plainly: STS injury, neuronal viability and cytotoxicity.
Procedure: At D.I.V. 11, ½ media was collected (conditioned media) and mixed with an equal volume fresh neurobasal media (to make the 24 hour treatment media). STS was prepared at the desired concentration in treatment media, with or without experimental drugs (AQ2S or LY294002). The remaining growth maintenance media was replaced with 100 μL, of treatment media per well of a 96-well plate (or 2 mL for a six-well plate) for 24 hours.
The LDH Cytotoxicity Assay Kit II was purchased from Abcam (Cambridge, Mass., USA). Neurons were cultured in 96-well format and subjected to STS injury ±AQ2S for 24 hours (in 100 μL, total media volume). At 23 hours maximum LDH release (positive control) was prepared by adding 10 μL, cell lysis reagent directly to a few non-injured wells (i.e., no STS or AQ2S). At the end of the 24 hour injury period, 80 μL, of media was transferred to a new 96-well plate. Plates were spun at ˜500 g for 5 minutes. 10 μL, of cell culture treatment media was added to a new black-walled plate and advanced WST detection reagent added. The mix was incubated for ˜15 minutes and absorbance measured (OD 450 nm). Fresh culture media was used as a negative control. Cytotoxicity was calculated using the standard formula: cytotoxicity %=(sample LDH−negative-control LDH)/(maximum LDH release−negative-control LDH)×100.
The test system of a further data set is AKT. The data set is described as follows: Western blot of AKT activation (pAKT473). It is filed as cell-based, rat. How it is done:
AKT is a key pro-survival kinase that is dysregulated by acute brain injury. Many diverse therapies used to prevent neuronal death activate AKT, including small molecules, endogenously derived survival proteins, and other non-pharmacology based treatments like therapeutic hypothermia. To further elucidate the mechanisms of AQ2S-mediated neuroprotection, the level of activated (phosphorylated) AKT was measured by western blot.
Neurons used for Western blot analysis for grown in 6-well plates. Briefly, neurons were treated with experimental compounds for the indicated time/conditions. At the end of each experiment, neurons were washed in ice cold PBS and harvested in 65 μL RIPA buffer containing protease inhibitors, phosphatase inhibitors, and EDTA. Extracts were collected in 0.5 mL tubes and sonicated for 20-30 seconds. Cell extracts were then spun at 4° C./16,000 g/10 minutes and stored at −80° C. until use. Frozen extracts were thawed on ice and protein concentration measured using the BCA assay (PIERCE). […] of sample protein was loaded per well of a 7.5% SDS precast gel (Biorad), and run for 30 minutes to 1 hour at 200 V. Kaleidoscope protein standards (Biorad) were run parallel to neuron extracts. Proteins were then transferred to PDVF membranes (run at 100 V/4° C./1.5 hours). PDVF membranes were washed once in tris buffered saline (TBS) and blocked for 1 hour in tris buffered saline/tween-20 with 7.5% nonfat milk (TBS-T/milk). Blots were incubated overnight at 4° C. with primary antibodies in TBS-T/milk. Cell Signaling Technology: phospho-AKT473, AKT Total, phospho-ERK1/2, ERK Total, cleavage caspase-3. Santa Cruz Antibodies: NF-κB p50 subunit, NF-κB p65 subunit, and beta actin. Calbiochem: 4-HNE antibody. Blots were washed 3 times (5 minutes each) with TBS, and incubated with secondary antibodies for 2 hours. Invitrogen: goat anti-rabbit or goat anti-mouse. Blots were washed 3 times (5 minutes each) with TBS, and incubated for 1 minute in HRP detection solution (Amersham). Films were exposed to blots and developed (SRX-101A, Konica Minolta Medical & Graphic Inc.). Re-probed blots (e.g. beta actin, AKT total, ERK total) were stripped in western blot stripping buffer (Fischer Scientific) for 10 minutes, washed once with TBS, re-blocked in TBS-T/milk for 1 hour, and incubated overnight with new primary antibody. Films were scanned (EPSON GT 20,000), and densitometry performed using UN-SCAN-IT software (Silk Scientific).

The test system of a further data set is caspase3/7. Put plainly: Stretch injury induced caspase3/7 activity. It is filed as cell-based, rat. The note with it: 75 μM pre-treated 30 minutes; 24 hours after injury. The procedure:
Rat cortical neurons are isolated from E16 embryos, and plated on silicone membranes (with defined elastic properties) held in a custom made stainless steel chamber. DIV 7-9 neurons are subjected to a (computer controlled) preset stretch injury; strain rate 10 s^−1 and 50% membrane deformation. AQ2S or DMSO (vehicle control) was added before (pre-treatment) or after post-treatment) injury, Cell death was assayed ˜24 hours after injury by measuring 1) extracellular LDH in the culture media (released from dying/dead cells), 2) caspase-3/7 activation (a protease involved in execution of cell death), and 3) MTT metabolism (a reagent metabolized by living cells).
Caspase activation plays a role in cell death after TBI. Primary rat cortical neurons were grown on a custom made stretch-injury device (An in vitro model of TBI). Neurons were pre-treated with 75 μM AQ2S or vehicle only (DMSO control) for 30 minutes, and subjected to a defined stretch injury. 24 hours after injury caspase3/7 activity was measured. […] (C) In a third experiment, AQ2S was administered 30 minutes before (pre-treatment) or 30 minutes after (post-treatment) stretch-TBI (FIG. 19C) (Experiment 3, n=3/treatment). Data was analyzed using ANOVA and Fisher LSD post-hoc test. Data is significant at (*) p<0.05. Graphs show Mean+SEM.

The test system of the next data set is caspase-8. Put plainly: STS-induced caspase-8 activity in neurons. The note with it: 150 nM STS 24 hours; co-treatment 75 μM. It is filed as cell-based, rat.
The test system of another data set is caspase-9. The data set is described as follows: STS-induced caspase-9 activity in neurons. The format is cell-based, rat. The settings on record: 150 nM STS 24 hours; co-treatment 75 μM.
The test system of data set [2] is primary rat cortical neurons. Put plainly: H2O2 injury, neuronal viability 24 h (CellTiter-Blue). The note with it: 40 μM H2O2.
The test system of data set [3] is primary rat cortical neurons. Put plainly: AQ2S alone on fluorescent and luminescent viability assays (luciferase interference). It is filed as cell-based.
Procedure: To test if AQ2S mediated inhibition of caspase3/7 was artifact, the effect of different AQ2S concentrations on 2 different cell viability tests were compared (one test fluorometric and the other luminescent). AQ2S was incubated at the indicated concentrations for 24 hours. After 24 hours, the cell viability reagent was added and cell survival assayed. […] Finally, to replicate the exact experimental conditions used in injury studies, neurons were first incubated with the CellTiter Blue reagent for 2 hours. Subsequently, the viability-GLO reagent was added for 1 hour and luminescence measured (i.e. viability reagents were mixed together; FIG. 11C).
Where [4] appears, read: 150 nM STS 24 hours, co-treatment 75 μM.

SMILES strings stand for the structures.

Take `O=C1c2ccccc2C(=O)c2cc(S(=O)(=O)O)ccc21` [AQ2S, anthraquinone-2-sulfonic acid]: in data set [1] (setting [4]), the “STS injury, LDH release” value is “significantly reduced 24 hour STS injury”; the “STS injury, cellular ATP levels (GLO-Viability Assay)” value is reported as “significantly reduced 24 hour STS injury”; the “STS injury, live-cell protease activity (CellTiter-Fluor)” value is “significantly reduced 24 hour STS injury”; the “STS injury, resazurin metabolism (CellTiter Blue)” value was “significantly reduced 24 hour STS injury”. Further, the “reduction in viability compared with non-injured controls” value in data set [1] (250 nM STS 24 hours, AQ2S-treated neurons) is recorded as 17.6%. Also, the “cell death after STS” value in data set [1] (250 nM STS 24 hours, co-treatment 75 or 125 μM) is on record as “significantly reduced cell death”. For the same compound, the “cell viability, comparison of neuroprotectants” value in data set [1] (250 nM STS co-administered 24 hours) is “increased cell viability”. Further, the “neuronal viability, high dose STS” value in data set [1] (500 nM STS 24 hours, co-treatment 125 μM and 150 μM) was “significantly (but only slightly) increased neuronal viability”. Besides, the “baseline viability or cytotoxicity” value in data set [1] (compound alone, no STS, 75 μM, 24 h) was “did not significantly alter baseline viability or cytotoxicity”. Further, in data set [1] (neuroprotection in neuron injury assays), the “concentration of maximal protection” value was in the range of 75 to 125 µM. The pAKT473 entry with AKT (250 nM STS 6 hours, AQ2S) is on record as “marginally increased STS-induced pAKT473 at the 6-hour time point, but did not reach statistical significance”. In addition, the pAKT473 entry with AKT (250 nM STS 21 hours, 125 μM AQ2S) is on record as “pAKT473 increased in the presence of AQ2S”. Also, in the data set on AKT (125 μM, 17 hours STS injury), the “AKT activity (pAKT473)” value was “significant elevation in AKT activity” and the “ratio of pAKT473/AKT” value is recorded as “highest in the AQ2S treated group”. The AKT total entry in the data set with AKT (non-injury, 125 μM) is “No effect on AKT total was observed”. In the data set with AKT (non-injury, 125 μM, 4 hours), the pAKT473 entry is recorded as “significant (but modest) rise in pAKT473”. Also, the pAKT473 entry with AKT (non-injury, 125 μM, 24 hours) is recorded as “not significant at 24 hours”. Besides, in the data set with caspase3/7, the “stretch injury induced caspase3/7 activity” value is on record as “significantly reduced caspase activation”. Further, in the data set with caspase-8, the caspase-8 activity entry is “significantly reduced baseline and injury activity levels”. Further, the caspase-9 activity result with caspase-9 is “significantly reduced baseline and injury activity levels”. Also, the “neuronal death after H2O2 injury” value in data set [2] (post-treatment 50 μM, 24 h) is reported as “significantly reduced H2O2 induced cell death”. Further, the “neuronal death after H2O2 injury” value in data set [2] (post-treatment 75 μM, 24 h after injury) is “potently prevented cell death”. Besides, the “decrease in luminescent signal compared to DMSO controls” value in data set [3] (CellTiter Blue and viability-GLO reagents combined) is 13-17%. In data set [3] (compound alone 24 hours, all concentrations used), the “viability, fluorometric CellTiter Blue assay” value is listed as “none of the AQ2S concentrations used inhibited viability below control levels”.
